This is an account of results in US11731977B2, “SGC stimulators” (Cyclerion Therapeutics, Inc., priority 2016, dated 2023).

The test system of one experiment is rats. Briefly: Acute and tonic pain: healthy rats, tail flick test (Example 13). To be noted: Compound I-1 p.o. 10 mg/kg, 120 minutes after treatment.
Another experiment relates to male Long Evans rats. The experiment in a line: Novel Object Recognition (NOR) test, MK-801-induced memory disruption (Example 10). It counts as in vivo, rat. As to conditions: for reversal of MK-801-induced memory deficits (Recognition Index): Galantamine 1 mg/kg, vs Vehicle/MK-801; for Recognition Index, Mean: 0 to 3 minute time bin. The text has this:
Objective. To assess the efficacy of compounds of the invention in reversing memory disruption induced by MK-801 using the Novel Object Recognition (NOR) test in male Long Evans rats. The NOR is a test of recognition learning and memory retrieval, which takes advantage of the spontaneous preference of rodents to investigate a novel object compared with a familiar one (Ennaceur and Delacour, 1988). […] The NOR test has been employed extensively to assess the potential cognitive-enhancing properties of novel test compounds. […] In the present study, a memory saving model was used to test the novel compound—MK-801 (Dizocilpine), an uncompetitive antagonist of the NMD A receptor was used to cause deficit of recognition memory. Compounds of the invention were evaluated through its efficacy in reversing memory impairment.
Animals. Adult male Long-Evans rats (275-299 gram at arrival from Envigo, Indianapolis, Ind.) were used in this study. Rats were placed in the experimental rooms and assigned unique identification numbers (tail marks). Rats were housed 2 per cage in polycarbonate cages with filter tops and acclimated for at least 7 days prior to testing. Animal room was maintained in a 12/12 h light/dark cycle (lights on at 07.00 EST), 22±1° C. and relative humidity at approximately 50%. Food and water were provided ad libitum. All animals were examined, handled and weighed prior to the study to assure adequate health and to minimize the non-specific stress associated with testing. Each animal was randomly assigned across the treatment groups. The experiments were conducted during the animal's light cycle phase.
MK-801 (0.1 mg/kg; Sigma-Aldrich) was dissolved in saline and injected IP 15 min prior to NOR training.
Galantamine (1 mg/kg; Tocris) was dissolved in saline and injected IP 15 minutes prior to training.
Compound I-1 (0.01, 0.1, and 1 mg/kg) was oral administrated 60 minutes prior to training. The dose volume was 4 ml/kg
Experimental procedures. NOR test was conducted in an open-field arena (40×40 cm) placed in a sound-attenuated room under dimmed lighting. Each rat was tested separately and care was taken to remove olfactory/taste cues by cleaning the arena and test objects with 70% alcohol between trials and rats. All training and testing trials were video-taped and scored by an observer blind to treatments.
On Days 1 and 2, rats were allowed to freely explore the arena (no objects inside) for a 5-minute habituation period. On Day 3 (training and testing day), rats were administered vehicle (saline), galantamine or compound solutions followed by MK-801 or vehicle (saline). After the pretreatment time, each animal was placed into the test arena in the presence of two identical objects. Each rat was placed in the arena facing the same direction at the same position, and the time spent actively exploring the objects during a 3-minute training period (T1) was recorded. The rat was returned to its home cage following training. NOR test (T2) was conducted 1 hours after T1. Each rat was placed back into the test arena in the presence of one familiar object and one novel object for 5 minutes, and the time spent exploring both objects was recorded during 0-1, 0-3 and 0-5 min time ranges. The presentation order and position of the objects (left/right) in T2 was randomized between rats to prevent bias from order or place preference.
Statistical Analysis. Data of NOR test (T2) were expressed as Recognition Index, which is defined as the ratio of the time spent exploring the novel object over the total time spent exploring both objects (Novel/(Familiar+Novel)×100%) during the test session. Data were analyzed by using one-way ANOVA followed by Fisher's LSD post hoc test on 0-1, 0-3 and 0-5 minute time range separately, with significance set at P<0.05. […] And then statistical outliers that fell above or below two standard deviations from the mean were removed from the final analysis. […]

The test system of experiment [1] is R6/2 mice hippocampal slices. The experiment in a line: Synaptic transmission and plasticity (LTP) in R6/2 mice hippocampal slices (Example 8). Also noted: species or system mouse. As to conditions: R6/2 slices. The method, then:
Improvements in synaptic transmission and plasticity, as measured by long term potentiation (LTP), is believed to indicate the potential of a compound to enhance memory. LTP is an electrophysiological phenomena that is commonly referred to as the a cellular phenomenon driving learning and memory.
Preparation of acute mice hippocampal slices. Experiments were carried out with 11 to 12 week-old R6/2 and WT mice provided by the Jackson Laboratory (USA). Hippocampal slices (350 μm thickness) were cut with a Macllwain tissue chopper in an ice-cold oxygenated sucrose solution (Saccharose 250, Glucose 11, NaHCO3 26, KCl 2, NaH2PO4 1.2, MgCl2 7, and CaCl2 0.5 in mM). The slices were incubated 1 hour at room temperature in ACSF of the following composition: Glucose 11, NaHCO3 25, NaCl 126, KCl 3.5, NaH2PO4 1.2, MgCl2 1.3, and CaCl2 2 in mM. Then, the slices were let to recover for at least 1 h.
Slice perfusion and temperature control. During the experiments, the slices were continuously perfused with the ACSF (bubbled with 95% O2-5% CO2) at the rate of 3 mL/min with a peristaltic pump (MEA chamber volume: ˜1 mL). Complete solution exchange in the MEA chamber was achieved 20 s after the switch of solutions. The perfusion liquid was continuously pre-heated at 37° C. just before reaching the MEA chamber with a heated-perfusion cannula (PH01, Multichannel Systems, Reutlingen, Germany). The temperature of the MEA chamber was maintained at 37±0.1° C. with a heating element located in the MEA amplifier headstage.
Input/Output (I/O)curve: from 100 to 800 μA, by 100 μA steps. The stimulus intensity was then set to a fixed value of 250 μA for the short- and long-term synaptic plasticity measurements.
Short-term plasticity properties: two pulses with a decreasing inter-stimuli interval (e.g. 300 ms, 200 ms, 100 ms, 50 ms, 25 ms) were applied. Compound application: fEPSP were recorded for 10 minutes in control conditions (to verify the baseline steadiness) followed by a 15-minute exposure to the compound (or 25 minutes in the presence of vehicle only for control slices). A second I/O protocol and paired-pulse protocol were applied, as described previously, in the continuous presence of the compound.
Long-Term Potentiation (LTP); Following a 10-minute control period (in the presence of the compound or vehicle for control slices), LTP was induced by a 10×TBS. Potentiation of synaptic transmission was then monitored for an additional 60-minute period (in the continuous presence of the compound or vehicle for control slices).

On to `Fc1ccccc1Cc1nc(-c2nc(C(F)(F)F)n[nH]2)cn2ccnc12` [Compound I-1, 8-(2-fluorobenzyl)-6-(3-(trifluoromethyl)-1H-1,2,4-triazol-5-yl)imidazo[1,2-a]pyrazine], for which the “% of activity vs. vehicle” value with rats worked out at 25%. Moreover, the “reversal of MK-801-induced memory deficits (Recognition Index)” value is on record as “significantly reversed” in the experiment with male Long Evans rats (0-1 min time range, Compound I-1 1 mg/kg); “significantly reversed” in the experiment with male Long Evans rats (0-3 minute time range, Compound I-1 0.1 and 1 mg/kg); “significantly reversed” with male Long Evans rats (0-5 minute time range, Compound I-1 1 mg/kg). Further, the “Recognition Index, Mean” value in the experiment on male Long Evans rats (I-1 (0.1 mg/kg) oral + MK-801) was 60.1%; in the experiment on male Long Evans rats (I-1 (1 mg/kg) oral + MK-801), 64.8%; in the experiment with male Long Evans rats (I-1 (10 mg/kg) oral + MK-801), 66.8%. Further, the “potentiation of the evoked-response amplitudes, stabilized level” value in experiment [1] (7 nM) is “around 25%”; in experiment [1] (46 nM) it was “around 45%”; in experiment [1] (308 nM), “around 35%”. The “rescue of LTP impairment” value in experiment [1] (7 nM) is on record as “failed to significantly rescue”; in experiment [1] (46 nM and 308 nM) it was “completely restored the LTP deficit”. For the same compound, the “fEPSP increase at endpoint after HFS (LTP)” value in experiment [1] (7 nM (R6/2 control 16±3%, WT 46±5%)) was found to be 26±6%; in experiment [1] (46 nM (R6/2 control 16±3%, WT 46±5%)), 44±12%; in experiment [1] (308 nM (R6/2 control 16±3%, WT 46±5%)) it was 37±9%. For the same compound, in experiment [1] (7 nM, 46 nM or 308 nM, exception 308 nM at 50 ms ISI), the “effect on short-term plasticity properties (paired pulses, 25 ms to 300 ms ISI)” value was “None of the evaluated Compound I-1 concentrations (7 nM, 46 nM or 308 nM) displayed a significant effect”. Also, the “effect on overall I/O characteristics” value in experiment [1] (7 nM, 46 nM, 308 nM) is listed as “none of the 3 concentrations displayed a significant effect”.
